Measured values from ChEMBL document CHEMBL2434826, “Multifunctional tacrine-flavonoid hybrids with cholinergic, β-amyloid-reducing, and metal chelating properties for the treatment of Alzheimer's disease” (Eur J Med Chem, 2013).
Activity calls are given as the source filed them. The calls are words filed in the database; no cut-off is given here.

Tests used:
[1] = molecular target: T1, Amyloid-beta precursor protein (Homo sapiens, UniProt P05067); assay: Inhibition of amyloid beta (1 to 42) (unknown origin) self-induced aggregation at 20 uM after 48 hrs by thioflavin T fluorescence assay relative to control
T1 sequence (P05067 whole entry): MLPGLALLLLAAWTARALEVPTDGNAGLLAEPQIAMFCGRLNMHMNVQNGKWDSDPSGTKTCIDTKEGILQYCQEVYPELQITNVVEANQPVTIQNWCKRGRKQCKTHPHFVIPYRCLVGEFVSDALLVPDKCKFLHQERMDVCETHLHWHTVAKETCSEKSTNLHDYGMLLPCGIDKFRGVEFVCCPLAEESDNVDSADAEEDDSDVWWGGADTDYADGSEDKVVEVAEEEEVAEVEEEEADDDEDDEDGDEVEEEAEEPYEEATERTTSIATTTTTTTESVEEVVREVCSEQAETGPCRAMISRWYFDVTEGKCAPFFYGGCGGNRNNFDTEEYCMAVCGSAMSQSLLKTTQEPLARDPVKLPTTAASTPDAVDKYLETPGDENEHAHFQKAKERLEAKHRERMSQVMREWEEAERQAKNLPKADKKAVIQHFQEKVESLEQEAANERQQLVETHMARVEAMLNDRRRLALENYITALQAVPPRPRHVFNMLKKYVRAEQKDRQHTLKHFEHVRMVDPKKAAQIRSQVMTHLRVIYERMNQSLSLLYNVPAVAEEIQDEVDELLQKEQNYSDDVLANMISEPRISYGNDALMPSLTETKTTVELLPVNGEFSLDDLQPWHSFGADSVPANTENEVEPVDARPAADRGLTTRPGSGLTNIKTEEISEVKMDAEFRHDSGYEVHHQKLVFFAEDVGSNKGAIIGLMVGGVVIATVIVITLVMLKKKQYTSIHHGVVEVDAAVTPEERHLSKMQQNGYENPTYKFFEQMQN

[2] = system: Radical scavenging activity; assay: Antioxidant activity assessed as DPPH radical scavenging activity at 2 mM relative to control; type: functional
[3] = molecular target: Acetylcholinesterase (Electrophorus electricus, UniProt O42275)
Sequence of Acetylcholinesterase (O42275 whole entry): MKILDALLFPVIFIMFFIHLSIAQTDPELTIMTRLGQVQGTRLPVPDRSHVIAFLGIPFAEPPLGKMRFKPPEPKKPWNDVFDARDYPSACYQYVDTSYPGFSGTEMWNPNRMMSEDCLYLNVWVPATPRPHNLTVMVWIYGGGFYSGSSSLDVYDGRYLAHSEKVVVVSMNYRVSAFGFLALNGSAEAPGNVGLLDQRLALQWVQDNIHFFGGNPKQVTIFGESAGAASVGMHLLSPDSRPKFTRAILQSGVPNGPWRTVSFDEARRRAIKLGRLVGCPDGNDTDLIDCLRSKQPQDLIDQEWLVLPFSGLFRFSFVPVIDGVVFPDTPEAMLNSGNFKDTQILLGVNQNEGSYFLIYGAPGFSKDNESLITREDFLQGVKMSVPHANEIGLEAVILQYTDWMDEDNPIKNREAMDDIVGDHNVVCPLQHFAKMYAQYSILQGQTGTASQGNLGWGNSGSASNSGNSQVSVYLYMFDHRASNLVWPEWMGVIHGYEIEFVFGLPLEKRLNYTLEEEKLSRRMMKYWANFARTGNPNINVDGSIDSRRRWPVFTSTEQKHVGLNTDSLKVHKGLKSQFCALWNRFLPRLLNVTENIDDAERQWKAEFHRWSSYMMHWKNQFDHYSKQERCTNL
Description: Inhibition of electric eel AChE using acetylthiocholine iodide as substrate preincubated for 6 mins followed by substrate addition by Ellmans method

[4] = molecular target: Cholinesterase (Equus caballus, UniProt P81908)
Sequence of Cholinesterase (P81908 whole entry): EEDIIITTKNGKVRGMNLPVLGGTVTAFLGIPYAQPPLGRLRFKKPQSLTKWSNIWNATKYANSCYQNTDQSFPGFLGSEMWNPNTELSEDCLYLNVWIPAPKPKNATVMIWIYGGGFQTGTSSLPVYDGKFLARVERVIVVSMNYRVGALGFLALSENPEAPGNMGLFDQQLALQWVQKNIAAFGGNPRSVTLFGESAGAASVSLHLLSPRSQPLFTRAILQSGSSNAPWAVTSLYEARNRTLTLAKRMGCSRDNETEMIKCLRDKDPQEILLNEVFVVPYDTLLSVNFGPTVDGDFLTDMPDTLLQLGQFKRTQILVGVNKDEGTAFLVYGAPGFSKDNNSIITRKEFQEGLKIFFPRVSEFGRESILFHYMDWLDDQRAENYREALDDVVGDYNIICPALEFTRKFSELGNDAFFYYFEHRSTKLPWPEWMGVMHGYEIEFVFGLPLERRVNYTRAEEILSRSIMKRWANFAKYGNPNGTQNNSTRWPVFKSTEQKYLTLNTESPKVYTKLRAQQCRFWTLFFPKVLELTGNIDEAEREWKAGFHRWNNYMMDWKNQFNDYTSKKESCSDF
Description: Inhibition of equine serum BuChE using S-butyrylcholinesterase iodide as substrate preincubated for 6 mins followed by substrate addition by Ellmans method

[5] = molecular target: Cholinesterase (Equus caballus) (UniProt P81908); assay: Competitive inhibition of equine serum BuChE using […] as substrate at 22.5 to 90 nM by Lineweaver-Burk plot analysis
Sequence of Cholinesterase (Equus caballus) (P81908 whole entry): as above

[6] = molecular target: Acetylcholinesterase (Electrophorus electricus) (UniProt O42275); conditions: 7.7 to 30.8 nM
Sequence of Acetylcholinesterase (Electrophorus electricus) (O42275 24-633 limits assumed): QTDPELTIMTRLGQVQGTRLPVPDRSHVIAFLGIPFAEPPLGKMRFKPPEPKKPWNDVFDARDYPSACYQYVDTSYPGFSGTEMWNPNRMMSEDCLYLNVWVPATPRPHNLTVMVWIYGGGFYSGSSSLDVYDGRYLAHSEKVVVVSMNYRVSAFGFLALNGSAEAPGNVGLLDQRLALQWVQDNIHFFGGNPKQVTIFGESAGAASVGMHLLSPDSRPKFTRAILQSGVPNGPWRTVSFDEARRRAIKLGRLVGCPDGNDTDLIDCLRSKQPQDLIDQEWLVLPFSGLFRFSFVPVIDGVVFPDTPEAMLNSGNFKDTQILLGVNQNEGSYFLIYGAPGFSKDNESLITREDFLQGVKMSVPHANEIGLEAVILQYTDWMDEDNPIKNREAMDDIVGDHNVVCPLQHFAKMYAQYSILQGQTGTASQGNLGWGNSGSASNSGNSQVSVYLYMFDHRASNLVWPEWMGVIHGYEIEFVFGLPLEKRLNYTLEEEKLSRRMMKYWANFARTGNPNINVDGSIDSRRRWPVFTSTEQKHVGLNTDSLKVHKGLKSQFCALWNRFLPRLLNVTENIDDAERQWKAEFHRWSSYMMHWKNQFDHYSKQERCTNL

[7] = molecular target: T1, Amyloid-beta precursor protein
Description: Inhibition of amyloid beta (1 to 42) (unknown origin) self-induced aggregation after 48 hrs by thioflavin T fluorescence assay

[8] = molecular target: Acetylcholinesterase (Electrophorus electricus) (UniProt O42275); assay: Potency index, ratio of tacrine IC50 to compound IC50 for electric eel AChE
[9] = molecular target: Acetylcholinesterase (Electrophorus electricus) (UniProt O42275); assay: Potency index, ratio of galanthamine IC50 to compound IC50 for electric eel AChE
[10] = molecular target: Cholinesterase (Equus caballus) (UniProt P81908); assay: Potency index, ratio of galanthamine IC50 to compound IC50 for equine serum BuChE
[11] = molecular target: Cholinesterase (Equus caballus) (UniProt P81908); assay: Potency index, ratio of tacrine IC50 to compound IC50 for equine serum BuChE
[12] = Cytotoxicity against human SH-SY5Y cells assessed as survival at 1 uM after 24 hrs by MTT assay relative to control; type: cell-based; conditions: read-out: Survival
[13] = Cytotoxicity against human SH-SY5Y cells assessed as survival at 10 uM after 24 hrs by MTT assay relative to control; type: cell-based; conditions: read-out: Survival
[14] = Cytotoxicity against human SH-SY5Y cells assessed as survival at 50 uM after 24 hrs by MTT assay relative to control; type: cell-based; conditions: read-out: Survival
[15] = Metal chelating activity of the compound assessed as Fe2+-complex formation in methanol at 25 uM by UV-vis spectrophotometric analysis; type: functional
[16] = Cytotoxicity against human SH-SY5Y cells assessed as survival at 25 uM after 24 hrs by MTT assay relative to control; type: cell-based; conditions: read-out: Survival
[17] = Cytotoxicity against human SH-SY5Y cells assessed as survival at 5 uM after 24 hrs by MTT assay relative to control; type: cell-based; conditions: read-out: Survival
[18] = Metal chelating activity of the compound assessed as Cu2+-complex formation in methanol at 25 uM by UV-vis spectrophotometric analysis; type: functional

Row | SMILES | inhibition [1] [%] | Activity [2] [%] | IC50 [3] [nM] | IC50 [4] [nM] | IC50 [7] [µM] | other results
1 | O=c1cc(-c2ccc(Cl)cc2)oc2cc(OCCCN3CCN(CCCNc4c5c(nc6ccccc46)CCCC5)CC3)ccc12 | 48.9 | < 36 | 40.1 | 994 | – | –
2 | O=c1ccoc2cc(OCCCN3CCN(CCCNc4c5c(nc6ccccc46)CCCC5)CC3)cc(O)c12 | 85.3 | < 36 | 15.4 | 45 | 4.8 | inhibition [5]: Active; inhibition [6]: Active
3 | COc1cc(OCCCN2CCN(CCCNc3c4c(nc5ccccc35)CCCC4)CC2)cc2occc(=O)c12 | 62 | < 36 | 8.4 | 35 | 12.6 | Ratio IC50 [8]: 31; Ratio IC50 [9]: 318
4 | CN(C)c1ccc(-c2cc(=O)c3ccc(OCCCN4CCN(CCCNc5c6c(nc7ccccc57)CCCC6)CC4)cc3o2)cc1 | 12.2 | < 36 | 230 | 845 | – | –
5 | O=c1cc(-c2ccccc2)oc2cc(OCCCCCN3CCN(CCNc4c5c(nc6ccccc46)CCCC5)CC3)ccc12 | 65.4 | < 36 | 568 | 258 | 12.8 | –
6 | O=c1cc(-c2ccccc2)oc2cc(OCCN3CCN(CCCNc4c5c(nc6ccccc46)CCCC5)CC3)ccc12 | 70 | < 36 | 416 | 266 | 9.8 | –
7 | O=c1cc(-c2ccccc2)oc2cc(OCCCN3CCN(CCNc4c5c(nc6ccccc46)CCCC5)CC3)ccc12 | 59.1 | < 36 | 624 | 311 | 13.7 | –
8 | COc1cc(OCCCN2CCN(CCCNc3c4c(nc5ccccc35)CCCC4)CC2)cc2oc(-c3ccccc3)cc(=O)c12 | 68.7 | < 36 | 57.7 | 360 | 9.6 | –
9 | O=c1cc(-c2ccc([N+](=O)[O-])cc2)oc2cc(OCCCN3CCN(CCCNc4c5c(nc6ccccc46)CCCC5)CC3)ccc12 | 61.1 | < 36 | 75 | 460 | 14.1 | –
10 | O=c1cc(-c2ccccc2)oc2cc(OCCCCCCN3CCN(CCNc4c5c(nc6ccccc46)CCCC5)CC3)ccc12 | 63.3 | < 36 | 717 | 289 | 14.2 | –
11 | O=c1cc(-c2ccccc2)oc2cc(OCCCCN3CCN(CCCNc4c5c(nc6ccccc46)CCCC5)CC3)ccc12 | 53.4 | < 36 | 547 | 317 | 17.3 | –
12 | O=c1ccoc2cc(OCCCN3CCN(CCCNc4c5c(nc6ccccc46)CCCC5)CC3)ccc12 | 67.4 | < 36 | 10.3 | 25.8 | 11.5 | Ratio IC50 [10]: 508; Ratio IC50 [11]: 2
13 | O=c1cc(-c2ccccc2)oc2cc(O)ccc12 [7-HYDROXYFLAVONE] | 27.2 | – | 85000 | > 100000 | – | –
14 | Nc1ccc(-c2cc(=O)c3ccc(OCCCN4CCN(CCCNc5c6c(nc7ccccc57)CCCC6)CC4)cc3o2)cc1 | 9 | < 36 | 336 | 685 | – | –
15 | O=c1cc(-c2ccccc2)oc2cc(OCCCCCCN3CCN(CCCNc4c5c(nc6ccccc46)CCCC5)CC3)ccc12 | 63 | < 36 | 848 | 414 | 13.5 | –
16 | Cc1ccc(-c2cc(=O)c3ccc(OCCCN4CCN(CCCNc5c6c(nc7ccccc57)CCCC6)CC4)cc3o2)cc1 | 13.4 | < 36 | 316 | 573 | – | –
17 | COc1ccc(-c2cc(=O)c3ccc(OCCCN4CCN(CCCNc5c6c(nc7ccccc57)CCCC6)CC4)cc3o2)cc1 | 10.9 | < 36 | 417 | 655 | – | –
18 | O=c1cc(-c2ccccc2)oc2cc(OCCCCCN3CCN(CCCNc4c5c(nc6ccccc46)CCCC5)CC3)ccc12 | 62.5 | < 36 | 594 | 423 | 13.2 | –
19 | O=c1cc(-c2ccccc2)oc2cc(OCCCCN3CCN(CCNc4c5c(nc6ccccc46)CCCC5)CC3)ccc12 | 53.7 | < 36 | 268 | 197 | 16.4 | –
20 | O=c1cc(-c2ccccc2)oc2cc(OCCCN3CCN(CCCNc4c5c(nc6ccccc46)CCCC5)CC3)cc(O)c12 | 79.1 | < 36 | 133 | 558 | 6.5 | viability at 24 h, 1 µM [12]: 97.3%; viability at 24 h, 10 µM [13]: 94.4%; viability at 24 h, 50 µM [14]: 90.1%; Activity [15]: Active; viability at 24 h, 25 µM [16]: 92.7%; viability at 24 h, 5 µM [17]: 96.5%; Activity [18]: Active
21 | O=c1cc(-c2ccccc2)oc2cc(OCCN3CCN(CCNc4c5c(nc6ccccc46)CCCC5)CC3)ccc12 | 54.1 | < 36 | 481 | 520 | 16.8 | –
22 | O=c1cc(-c2ccccc2)oc2cc(OCCCN3CCN(CCCNc4c5c(nc6ccccc46)CCCC5)CC3)ccc12 | 58 | < 36 | 153 | 208 | 14.9 | –
